Values quoted from earlier work, collected in patent publication US7141382B1, “Methods for detection of IL-18 as an early marker for diagnosis of acute renal failure and predictor of mortality” (priority 2004, dated 2006).
Read-outs that look alike come from different tables or passages of the source.

System: freshly isolated proximal tubules from C57BL/6 mice
Settings: P<0.01 vs. hypoxia, n=6

In the case of `CC(C)[C@H](NC(=O)c1ccc2ccccc2n1)C(=O)N[C@@H](CC(=O)O)C(=O)COc1c(F)cccc1F` [OPH-001], the LDH release (25 minutes of hypoxic injury, hypoxic tubules preincubated with OPH-001 (100 μM), normoxic 11%±1%, vehicle (DMSO) 38%±6%) is listed as 22%±1%.

In the case of “recombinant IL-18: exogenous recombinant IL-18 added to the proximal tubule suspension”, the LDH release (sublethal (12 minutes) hypoxia, tubules preincubated with recombinant IL-18 (1 μg per 6 ml of tubule suspension), normoxic 10%±1%, vehicle (saline) 13%±1%) is given as 18%±1%.
